Where only a bound is given, the exact number is not on record here.

Series [1] concerns the target Cytochrome P450 3A4 (Homo sapiens, UniProt P08684). The series can be described thus: Inhibition of human recombinant CYP3A4 expressed in baculosomes at 100 fold Ki. The class given is ADME. The conditions noted are these: recombinant enzyme.
For series [2], the target named is T1, Cytochrome P450 1A2 (Homo sapiens, UniProt P05177).
T1 sequence (P05177 whole entry): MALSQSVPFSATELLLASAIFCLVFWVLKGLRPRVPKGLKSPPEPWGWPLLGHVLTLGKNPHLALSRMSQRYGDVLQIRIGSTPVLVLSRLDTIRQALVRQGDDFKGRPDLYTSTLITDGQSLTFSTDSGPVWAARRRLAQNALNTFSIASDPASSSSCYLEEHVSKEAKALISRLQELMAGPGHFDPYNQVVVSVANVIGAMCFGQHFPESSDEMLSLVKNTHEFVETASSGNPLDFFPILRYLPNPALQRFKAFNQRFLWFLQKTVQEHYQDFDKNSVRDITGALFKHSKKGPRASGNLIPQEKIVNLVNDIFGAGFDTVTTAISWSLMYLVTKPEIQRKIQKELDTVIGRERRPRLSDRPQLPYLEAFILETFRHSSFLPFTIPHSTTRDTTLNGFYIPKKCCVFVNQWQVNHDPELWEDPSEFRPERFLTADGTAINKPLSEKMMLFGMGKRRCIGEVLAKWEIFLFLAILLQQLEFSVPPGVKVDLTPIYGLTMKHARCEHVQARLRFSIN
In words: Inhibition of human recombinant CYP1A2 expressed in baculosomes at 100 fold Ki. The following applies: recombinant enzyme. The class given is ADME.

In series [3] the target is T2, Adenosine receptor A2b (Homo sapiens) (UniProt P29275).
T2 sequence (whole entry): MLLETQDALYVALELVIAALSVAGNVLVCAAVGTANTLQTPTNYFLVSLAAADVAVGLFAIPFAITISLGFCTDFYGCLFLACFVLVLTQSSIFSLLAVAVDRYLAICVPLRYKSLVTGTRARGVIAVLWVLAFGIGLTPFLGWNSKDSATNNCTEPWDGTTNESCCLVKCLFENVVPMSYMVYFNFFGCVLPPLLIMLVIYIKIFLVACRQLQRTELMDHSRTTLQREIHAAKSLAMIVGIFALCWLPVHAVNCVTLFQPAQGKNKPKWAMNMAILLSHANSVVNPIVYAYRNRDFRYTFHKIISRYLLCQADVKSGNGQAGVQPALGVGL
The series can be described thus: Antagonist activity at human adenosine A2B receptor expressed in HEK293 cells assessed as inhibition of NECA-stimulated cAMP accumulation incubated for 15 mins prior to NECA-challenge measured after 15 mins by spectrophotometry. The class given is functional, cell-based.

Series [4] has as its target T3, Adenosine receptor A1 (Homo sapiens, UniProt P30542).
T3 sequence (P30542 whole entry): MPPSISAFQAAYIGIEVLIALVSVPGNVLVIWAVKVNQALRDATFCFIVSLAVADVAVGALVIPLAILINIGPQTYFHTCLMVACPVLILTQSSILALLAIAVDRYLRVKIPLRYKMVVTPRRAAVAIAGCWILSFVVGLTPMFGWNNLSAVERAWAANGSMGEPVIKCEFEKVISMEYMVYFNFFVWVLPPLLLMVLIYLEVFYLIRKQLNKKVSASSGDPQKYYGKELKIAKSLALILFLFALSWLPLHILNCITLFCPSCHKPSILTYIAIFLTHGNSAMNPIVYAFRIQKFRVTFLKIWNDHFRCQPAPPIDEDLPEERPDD
In words: Displacement of [3H]DPCPX from human adenosine A1 receptor expressed in CHO cells after 60 mins. The class given is cell-based. (In general: Displacement assays read how much labelled ligand stays bound in the presence of the test substance.)

The target in series [5] is T4, Adenosine receptor A3 (Homo sapiens) (UniProt P0DMS8).
T4 sequence (whole entry): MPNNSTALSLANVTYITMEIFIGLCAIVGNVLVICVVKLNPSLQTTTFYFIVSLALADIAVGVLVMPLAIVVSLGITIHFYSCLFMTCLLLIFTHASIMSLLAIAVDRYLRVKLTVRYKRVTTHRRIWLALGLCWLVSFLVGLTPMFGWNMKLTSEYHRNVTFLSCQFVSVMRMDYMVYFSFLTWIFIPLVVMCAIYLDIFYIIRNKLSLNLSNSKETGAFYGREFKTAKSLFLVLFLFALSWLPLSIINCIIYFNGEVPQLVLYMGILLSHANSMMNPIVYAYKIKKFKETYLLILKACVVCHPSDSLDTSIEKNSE
In words: Displacement of [3H]NECA from adenosine A3 receptor in human HeLa cells at 10 uM after 180 mins. Type of series: cell-based.

Series [6] concerns the target T5, Adenosine receptor A3 (Homo sapiens, UniProt P0DMS8).
T5 sequence (P0DMS8 whole entry): T4 sequence (whole entry)
The series can be described thus: Displacement of [3H]NECA from adenosine A3 receptor in human HeLa cells after 180 mins. Type of series: cell-based.

Series [7] addresses T6, Adenosine receptor A2b (Homo sapiens, UniProt P29275).
T6 sequence (P29275 whole entry): T2 sequence (whole entry)
The series can be described thus: Displacement of [3H]DPCPX from human adenosine A2B receptor expressed in HEK293 cells after 30 mins by Scatchard plot analysis. Type of series: cell-based.

Series [8] has as its target T7, Adenosine receptor A2a (Homo sapiens, UniProt P29274). In words: Displacement of [3H]ZM241385 from adenosine A2A receptor in human HeLa cells at 10 uM after 30 mins. Type of series: cell-based.
Series [9] has as its target T7, Adenosine receptor A2a. The series can be described thus: Displacement of [3H]ZM241385 from adenosine A2A receptor in human HeLa cells after 30 mins. Type of series: cell-based.
Series [10] deals with T8, Adenosine receptor A1 (Homo sapiens) (UniProt P30542).
T8 sequence (whole entry): T3 sequence (P30542 whole entry)
The series can be described thus: Displacement of [3H]DPCPX from human adenosine A1 receptor expressed in CHO cells at 10 uM after 60 mins. Type of series: cell-based.

T7 sequence (P29274 whole entry): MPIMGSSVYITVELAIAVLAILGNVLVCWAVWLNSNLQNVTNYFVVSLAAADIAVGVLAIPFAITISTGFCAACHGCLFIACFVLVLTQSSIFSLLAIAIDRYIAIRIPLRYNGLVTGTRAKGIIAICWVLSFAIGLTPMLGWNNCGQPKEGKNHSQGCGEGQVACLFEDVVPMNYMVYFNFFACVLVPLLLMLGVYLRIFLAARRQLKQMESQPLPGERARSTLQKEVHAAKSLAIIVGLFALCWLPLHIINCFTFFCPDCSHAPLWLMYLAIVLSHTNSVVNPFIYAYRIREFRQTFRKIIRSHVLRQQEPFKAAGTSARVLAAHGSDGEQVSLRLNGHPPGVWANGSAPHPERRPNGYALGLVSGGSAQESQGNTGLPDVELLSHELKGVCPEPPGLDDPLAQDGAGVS
Sequence of Cytochrome P450 3A4 (P08684 whole entry): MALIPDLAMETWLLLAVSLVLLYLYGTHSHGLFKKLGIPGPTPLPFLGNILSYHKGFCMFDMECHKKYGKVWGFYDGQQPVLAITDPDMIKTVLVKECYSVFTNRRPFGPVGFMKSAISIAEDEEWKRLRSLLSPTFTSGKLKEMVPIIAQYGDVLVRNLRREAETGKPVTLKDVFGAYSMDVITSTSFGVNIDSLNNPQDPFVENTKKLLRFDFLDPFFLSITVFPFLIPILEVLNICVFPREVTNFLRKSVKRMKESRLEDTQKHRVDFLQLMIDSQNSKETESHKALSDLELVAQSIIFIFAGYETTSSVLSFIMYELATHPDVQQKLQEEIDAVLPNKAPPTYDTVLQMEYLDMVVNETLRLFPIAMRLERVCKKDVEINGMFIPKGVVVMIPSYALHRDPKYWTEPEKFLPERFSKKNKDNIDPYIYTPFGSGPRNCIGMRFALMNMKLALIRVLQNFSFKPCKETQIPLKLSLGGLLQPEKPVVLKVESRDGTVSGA

What is called Kb is the equilibrium dissociation constant of an antagonist, usually derived from a functional assay. For orientation: Ki means the equilibrium dissociation constant of an inhibitor or competing ligand from its target. Usually inhibition stands for the share of the control response that was lost under treatment. Read a low inhibition as little suppression. For the molecule `CC1=C(C(=O)OC(C)C)C(c2ccco2)NC(=S)N1` (racemic), the “inhibition (INH)” value in series [1] and in [2] was “Not Active” in each case. For the same molecule, the antagonist dissociation constant (Kb) in series [3] worked out at 4.7 nM. For the same molecule, the Ki was more than 10000 nM in [4], more than 10000 nM in series [6], 10.2 nM in series [7] and more than 10000 nM in series [9]. Further, the inhibition in [5] stood at 4%; in series [8] it was 18%; in series [10], 15%.
As for `CCOC(=O)C1=C(C)NC(=O)NC1c1ccsc1` (racemic), the “inhibition (INH)” value in series [1] and in series [2] was “Not Active” in each case. In addition, the Kb in series [3] is 25.2 nM. The Ki is more than 10000 nM in series [4], more than 10000 nM in series [6], 23.6 nM in series [7] and more than 10000 nM in [9]. The inhibition in [5] was found to be 11%; in series [8], 34%; in series [10], 16%.

These data come from ChEMBL document CHEMBL3091330, “Discovery of 3,4-Dihydropyrimidin-2(1H)-ones As a Novel Class of Potent and Selective A2B Adenosine Receptor Antagonists” (ACS Med Chem Lett, 2013).
